Laboratory results published in patent US9120824B2, “Cyclic amine derivatives as EP4 receptor agonists” (ROTTAPHARM BIOTECH S.R.L., priority 2011, dated 2015).

Experiments:
[1] = molecular target: T1, hEP4 receptors (human EP4/HEK293 transfectant) (Homo sapiens, UniProt P35408); test: [3H]-PGE2 membrane binding assay; settings: [3H]-PGE2 1 nM, human EP4/HEK293 membranes, compounds 1 nM to 1 μM; Ki by Cheng-Prusoff, pKi = -log10 Ki (M)
T1 construct: expressed in transfected cells; host or cells: HEK-293, stably transfected; membrane fraction
Excerpt: (§1) Stable Expression of Human EP4 Receptors in the Human Embryonic Kidney (HEK293) Cell Line
(§2) The cDNA clone of human EP4 receptor (NM_000958.2) was obtained from Invitrogen™: Ultimate™ ORF Clone Collection-Clone ID IOH46525. The coding sequence was subcloned in expression vector pcDNATM6.2/V5-DEST by Gateway technology (Invitrogen™).
(§3) Human embryonic kidney cells (HEK-293) were stably transfected with expression vector for human EP4 receptor in according to the method described in FuGENE®6 Transfection Reagent's manual (Roche Applied Science®).
(§4) Preparation of Membrane Fraction:
(§5) The EP4 transfected cells were grown in Dulbecco's modified Eagle's medium containing 10% fetal bovine serum and 10 μg/ml Blasticidin S HCl (selection medium) at 37° C. in a humidified atmosphere of 5% CO2 in air.
(§6) For the membrane preparation, cells in flask were harvested by hypotonical/mechanical lysis with chilled (4° C.) TE buffer (5 mM TRIS, 5 mM etylenediamine tetra-acetic acid (EDTA), pH 7.4).
(§7) Cells were detached and lysed with 10 ml of hypotonic lysis buffer and by scraping. The cell lysate was vortexed for 30 sec and centrifuged at 40000×g at 4° C. for 22 min.
a) Membrane Binding Assay[3H]-Prostaglandin E2
The membrane pellet was resuspended in the same buffer (5 mM TRIS, 5 mM ethylenediamine tetra-acetic acid (EDTA), pH 7.4), and protein concentration was determined by Bradford method (Bio-Bad® assay).
This membrane preparation was stored at −80° C. freezer until use for binding assay.
([^3H]-PGE2) membranes binding assays toward hEP4 receptors (human EP4/HEK293 transfectant, see above) and hEP2 receptors (human EP2/HEK293 transfectant, purchased from PerkinElmer Inc) were performed in 10 mM MES-KOH buffer pH6, containing 10 mM MgCl2 and 1 mM CaCl2 for EP4 binding assay or 50 mM Tris-Cl, BSA 0.5% for EP2 binding assay (according to supplier indication).
Ten microgram of protein from membrane fractions were incubated in a total volume of 0.1 ml (EP4) or 0.2 ml (EP2) with 1 nM (EP4) or 3 nM (EP2) [^3H]-PGE2 (PerkinElmer Inc, 171 Ci/mmol). In both assays to determine the total binding or non specific binding, 1% DMSO or 1 μM prostaglandin E2 (EP4) or 100 μM (EP2) were added to reaction mixtures, respectively. Incubation was conducted in a polypropylene 96 multiwell for 90 min (EP4) or 60 min (EP2) at room temperature prior to separation of the bound and free radioligand by vacuum manifold rapid filtration on glass fiber filters (Unifilter GFB96, PerkinElmer Inc) pre-soaked in 0.3% polyethyleneimine. Filters were washed with ice cold buffer pH 7.4 (50 mM HEPES, NaCl 500 mM, BSA 0.1% for EP4 binding assay or 50 mM Tris-Cl for EP2 binding assays) and the residual [^3H]-PGE2 binding determined by solid scintillation counter (TopCount, PerkinElmer Inc).
The affinity (Ki) of each compound was calculated according to the Cheng-Prousoff equation: Ki=IC50/(1+([C]/Kd)). Results were expressed as pKi (−log 10 Ki (M)

human EP4 receptor = molecular target: T2, human EP4 receptor (Homo sapiens, UniProt P35408); test: cAMP assay on human EP4 membrane of transfected cells (AlphaScreen); assay type: biochemical; settings: human EP4 HEK293 cell membranes
T2 construct: expressed in transfected cells; host or cells: HEK-293, stably transfected; membrane fraction
Excerpt: as §1, §2, §3, §4, §5, §6, §7
b) cAMP Assay on Human EP4 Membrane of Transfected Cells.
The assay is based on the competition between endogenous cAMP and exogenously added biotinylated cAMP. The capture of cAMP is achieved by using a specific antibody conjugated to […] beads.
Cell membranes prepared as described above, were resuspended in 1 ml stimulation buffer (HBSS 1×+BSA 0.1%+IBMX 0.5 mM+HEPES 5 mM+MgCl2 10 mM+GTP 1 nM+GDP 10 μM+ATP 100 μM-pH 7.4). Cell membranes were dispensed into white 384-well microplates at final concentration of 1 μg/well and used for the determination of cAMP with the alphascreen cAMP functional assay (EnVision-PerkinElmer). Cell membrane/anti-cAMP Acceptor beads mix (5 μl) and a mixture of analysed compounds (dissolved in 100% DMSO to a final maximal concentration of 0.01% DMSO)/PGE2 (5 μl) were incubated at room temperature (22-23° C.) for 30 min in the dark. The Biotinylated-cAMP and donor beads (15 μl) were dispensed into each well to start the competition reaction. After 1 h incubation RT (22-23° C.) in the dark the plate was read using EnVision platform to determine the cAMP level (excitation: 680 nm; emission:520,620 nm).
cAMP standard curve (concentration range from 1×10-6 to 1×10-11 M in log intervals) with a negative control (no cAMP)
a positive control:forskolin 10 μM
Antagonism studies were performed stimulating HEK293 cell membrane with PGE2 3 nM. The AlphaScreen signal is plotted as a function of log concentration of cAMP and EC50 is determined. EC50 value is calculated by […].

T2 sequence (P35408 whole entry): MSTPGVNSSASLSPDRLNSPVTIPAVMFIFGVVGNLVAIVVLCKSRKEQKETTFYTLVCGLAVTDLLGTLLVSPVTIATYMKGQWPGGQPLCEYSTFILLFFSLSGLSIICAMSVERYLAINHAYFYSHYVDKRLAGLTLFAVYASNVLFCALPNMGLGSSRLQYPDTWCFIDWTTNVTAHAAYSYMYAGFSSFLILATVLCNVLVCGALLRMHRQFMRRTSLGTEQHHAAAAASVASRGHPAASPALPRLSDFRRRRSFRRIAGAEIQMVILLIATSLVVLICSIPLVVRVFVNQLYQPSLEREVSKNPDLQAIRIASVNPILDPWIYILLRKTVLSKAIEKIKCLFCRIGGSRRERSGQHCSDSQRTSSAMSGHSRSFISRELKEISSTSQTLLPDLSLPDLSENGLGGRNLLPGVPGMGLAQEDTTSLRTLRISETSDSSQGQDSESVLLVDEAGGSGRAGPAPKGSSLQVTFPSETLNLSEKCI
T1 sequence (P35408 whole entry): as above

Structure (SMILES): C[C@H](NC(=O)[C@H]1CCCCN1Cc1cccc(C(F)(F)F)c1)c1ccc(C(=O)O)cc1 [Example E5, lithium 4-((S)-1-((R)-1-(3-(trifluoromethyl)benzyl)piperidine-2-carboxamido)ethyl)benzoate]
- Ki [1]: 3.16e-08 M
- EC50 (human EP4 receptor): 1 nM

Structure (SMILES): O=C(O)c1ccc(C2(NC(=O)[C@H]3CCCCN3Cc3cccc(C(F)(F)F)c3)CC2)cc1 [Example E9, lithium (R)-4-(1-(1-(3-(trifluoromethyl)benzyl)piperidine-2-carboxamido)cyclopropyl)benzoate]
- Ki [1]: 7.94e-09 M
- EC50 (human EP4 receptor): 2.9 nM

Structure (SMILES): Cc1cc(CN2CCCC[C@@H]2C(=O)NC2(c3ccc(C(=O)O)cc3)CC2)ccc1F [Example E12, (R)-4-(1-(1-(4-fluoro-3-methylbenzyl)piperidine-2-carboxamido)cyclopropyl)benzoic acid]
- Ki [1]: 3.16e-08 M
- EC50 (human EP4 receptor): 6 nM

Structure (SMILES): O=C(O)c1ccc(C2(NC(=O)[C@H]3CCCCN3Cc3ccc(F)c(C(F)(F)F)c3)CC2)cc1 [Example E13, lithium (R)-4-(1-(1-(4-fluoro-3-(trifluoromethyl)benzyl)piperidine-2-carboxamido)cyclopropyl)benzoate]
- Ki [1]: 1e-08 M
- EC50 (human EP4 receptor): 8 nM

Structure (SMILES): C[C@H](NC(=O)[C@H]1CCCN1Cc1cccc(C(F)(F)F)c1)c1ccc(C(=O)O)cc1 [Example E15, lithium 4-((S)-1-((R)-1-(3-(trifluoromethyl)benzyl)pyrrolidine-2-carboxamido)ethyl)benzoate]
- Ki [1]: 2e-08 M
- EC50 (human EP4 receptor): 13.5 nM

Structure (SMILES): C[C@H](NC(=O)[C@H]1C[C@@H](O)CN1Cc1cccc(C(F)(F)F)c1)c1ccc(C(=O)O)cc1 [Example E19, lithium 4-((S)-1-((2R,4R)-4-hydroxy-1-(3-(trifluoromethyl)benzyl)pyrrolidine-2-carboxamido)ethyl)benzoate]
- Ki [1]: 3.98e-08 M
- EC50 (human EP4 receptor): 0.1 nM
